Counter-ions that a name gives are not always drawn.
What follows are molecules tested against LRRK2 (G2019S mutation, GST-LRRK2 (amino acids 970-2527)) (Homo sapiens (Human), UniProt Q5S007, G2019S) (assay: LRRK2 Km ATP LanthaScreen Assay). Details: mean IC50 of several test results.
Format: biochemical
Excerpt: Unless otherwise noted, all LRRK2 IC50 data presented in tables refers to the LRRK2 Km ATP LanthaScreen™ Assay that is described in the Biological Assay section.
The data presented for the Km ATP LanthaScreen™ Assay represents mean IC50 values based on several test results and may have reasonable deviations depending on the specific conditions and reagents used. Reagents for the LRRK2 Km ATP LanthaScreen™ Assay were purchased from Life Technologies Corporation.
LRRK2 Km ATP LanthaScreen™ Assay
a) 400 nl of a 1:2.15 serial dilution of test compound (98 μM top assay concentration) is spotted via Labcyte Echo to certain wells in a 384 well black, untreated plate. Control wells contain 400 nl of either DMSO or 400 nl of a known inhibitor in DMSO.
c) A 30 minute room temperature incubation is followed by addition of 10 μl of 800 nM fluorescein labeled LRRKtide peptide substrate and 186 μM ATP solution in 1× assay buffer to all wells.
d) After a 60 minute room temperature incubation, 20 μl of TR-FRET Dilution Buffer (Invitrogen PV3756B) containing 4 nM Tb-labeled anti-phospho LRRKtide antibody and 20 mM EDTA is added to all wells.
e) Plates are incubated at room temperature for 1 hour and read on an Envision™ multi-mode plate reader with LanthaScreen™ settings. Results are analysed using Assay Data Analyzer.

LRRK2 (G2019S mutation, GST-LRRK2 (amino acids 970-2527)), sequence (Q5S007 970-2527 G2019S): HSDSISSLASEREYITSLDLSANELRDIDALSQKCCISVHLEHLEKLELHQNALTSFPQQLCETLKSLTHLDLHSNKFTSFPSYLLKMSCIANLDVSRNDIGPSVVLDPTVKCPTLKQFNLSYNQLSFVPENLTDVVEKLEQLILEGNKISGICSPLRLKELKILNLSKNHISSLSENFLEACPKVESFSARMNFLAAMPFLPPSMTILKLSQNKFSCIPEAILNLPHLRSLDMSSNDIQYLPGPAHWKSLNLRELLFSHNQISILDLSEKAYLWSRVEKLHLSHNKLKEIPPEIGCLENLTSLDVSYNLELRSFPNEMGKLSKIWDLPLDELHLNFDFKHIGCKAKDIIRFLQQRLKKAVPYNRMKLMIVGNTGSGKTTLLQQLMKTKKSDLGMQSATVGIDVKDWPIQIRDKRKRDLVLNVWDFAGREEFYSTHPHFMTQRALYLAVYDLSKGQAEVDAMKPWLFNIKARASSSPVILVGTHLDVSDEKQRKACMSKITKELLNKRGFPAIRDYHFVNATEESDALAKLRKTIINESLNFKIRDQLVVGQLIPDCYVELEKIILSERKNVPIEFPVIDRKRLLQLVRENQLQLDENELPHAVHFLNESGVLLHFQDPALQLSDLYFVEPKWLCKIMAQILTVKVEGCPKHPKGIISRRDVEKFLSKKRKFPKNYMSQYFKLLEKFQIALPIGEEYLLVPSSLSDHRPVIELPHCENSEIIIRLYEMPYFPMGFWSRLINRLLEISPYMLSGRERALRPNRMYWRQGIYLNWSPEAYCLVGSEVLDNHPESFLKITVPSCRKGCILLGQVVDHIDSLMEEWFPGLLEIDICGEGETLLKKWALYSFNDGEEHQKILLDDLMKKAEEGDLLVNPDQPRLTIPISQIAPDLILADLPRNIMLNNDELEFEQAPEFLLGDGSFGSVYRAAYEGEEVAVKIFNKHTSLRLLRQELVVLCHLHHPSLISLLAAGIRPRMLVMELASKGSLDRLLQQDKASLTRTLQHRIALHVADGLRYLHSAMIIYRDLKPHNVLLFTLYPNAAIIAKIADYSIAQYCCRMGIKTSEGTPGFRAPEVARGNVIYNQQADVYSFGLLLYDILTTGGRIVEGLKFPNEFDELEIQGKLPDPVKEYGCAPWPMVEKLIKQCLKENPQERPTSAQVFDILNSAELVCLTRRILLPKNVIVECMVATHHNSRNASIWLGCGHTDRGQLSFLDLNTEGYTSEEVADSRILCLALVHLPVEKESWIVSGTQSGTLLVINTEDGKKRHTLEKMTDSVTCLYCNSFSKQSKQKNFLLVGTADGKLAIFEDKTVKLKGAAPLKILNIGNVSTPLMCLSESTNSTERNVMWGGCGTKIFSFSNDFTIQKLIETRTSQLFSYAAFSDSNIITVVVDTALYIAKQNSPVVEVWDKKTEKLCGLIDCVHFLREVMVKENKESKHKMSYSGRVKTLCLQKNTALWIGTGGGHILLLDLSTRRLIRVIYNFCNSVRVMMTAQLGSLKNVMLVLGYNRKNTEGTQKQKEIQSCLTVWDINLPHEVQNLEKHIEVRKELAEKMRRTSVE

Row | Compound | IC50
1 | Cn1cc(-c2ccc3cnn(-c4ccnc(N5CCN(CCO)CC5)c4)c3c2)cn1 [Example 55, 2-(4-(4-(6-(1-methyl-1H-pyrazol-4-yl)-1H-indazol-1-yl)pyridin-2-yl)piperazin-1-yl)ethanol] | 70 nM
2 | Cn1cc(-c2ccc3cnn(-c4ccnc(N5CCN(c6ccncn6)CC5)c4)c3c2)cn1 [Example 54, 6-(1-methyl-1H-pyrazol-4-yl)-1-(2-(4-(pyrimidin-4-yl)piperazin-1-yl)pyridin-4-yl)-1H-indazole] | 97 nM
3 | CS(=O)(=O)N1CCN(c2cc(-n3ncc4ccc(-c5ccn[nH]5)cc43)ncn2)CC1 [Example 64, 1-{6-[4-(methylsulfonyl)piperazin-1-yl]pyrimidin-4-yl}-6-(1H-pyrazol-5-yl)-1H-indazole] | 18 nM
4 | c1cncc(-c2ccc3cnn(-c4cc(N5CCOCC5)ncn4)c3c2)c1 [Example 67, 1-(6-morpholin-4-ylpyrimidin-4-yl)-6-pyridin-3-yl-1H-indazole] | 130 nM
5 | CC(C)Oc1ccc2cnn(-c3ccnc(N4C[C@@H](C)O[C@@H](C)C4)c3)c2c1 [Example 32, cis-4-(4-(6-isopropoxy-1H-indazol-1-yl)pyridin-2-yl)-2,6-dimethylmorpholine] | 245 nM
6 | CC(C)Oc1ccc2cnn(-c3ccnc(N4CCC4)c3)c2c1 [Example 26, 1-(2-(azetidin-1-yl)pyridin-4-yl)-6-isopropoxy-1H-indazole] | 584 nM
7 | Cn1cc(-c2ccc3cnn(-c4ccnc(N5CCN(C(=O)OC(C)(C)C)CC5)c4)c3c2)cn1 [Example 15, tert-butyl 4-(4-(6-(1-methyl-1H-pyrazol-4-yl)-1H-indazol-1-yl)pyridin-2-yl)piperazine-1-carboxylate] | 34 nM
8 | Cn1cc(-c2ccc3cnn(-c4ccnc(N5CCC(O)CC5)c4)c3c2)cn1 [Example 44, 1-(4-(6-(1-methyl-1H-pyrazol-4-yl)-1H-indazol-1-yl)pyridin-2-yl)piperidin-4-ol] | 100 nM
9 | CCc1nnc2n1CCN(c1cc(-n3ncc4ccc(OC(C)C)cc43)ccn1)C2 [Example 24, 3-ethyl-7-(4-(6-isopropoxy-1H-indazol-1-yl)pyridin-2-yl)-5,6,7,8-tetrahydro-[1,2,4]triazolo[4,3-a]pyrazine] | 435 nM
10 | CC(C)Oc1ccc2cnn(-c3ccnc(N4CCN(C)C(=O)C4)c3)c2c1 [Example 31, 4-(4-(6-isopropoxy-1H-indazol-1-yl)pyridin-2-yl)-1-methylpiperazin-2-one] | 443 nM
11 | Cn1cc(-c2ccc3cnn(-c4ccnc(N5CCCC5)c4)c3c2)cn1 [Example 46, 6-(1-methyl-1H-pyrazol-4-yl)-1-(2-(pyrrolidin-1-yl)pyridin-4-yl)-1H-indazole] | 74 nM
12 | CN1CCN(c2cc(-n3ncc4ccc(-c5cnn(C)c5)cc43)ccn2)CC1 [Example 9, 6-(1-methyl-1H-pyrazol-4-yl)-1-(2-(4-methylpiperazin-1-yl)pyridin-4-yl)-1H-indazole] | 56 nM
13 | Cn1cc(-c2cc(F)c3cnn(-c4ccnc(N5CCOCC5)c4)c3c2)cn1 [Example 3, 4-(4-(4-fluoro-6-(1-methyl-1H-pyrazol-4-yl)-1H-indazol-1-yl)pyridin-2-yl)morpholine] | 228 nM
14 | c1cc(-c2ccc3cnn(-c4cc(N5CCOCC5)ncn4)c3c2)[nH]n1 [Example 69, 1-(6-morpholin-4-ylpyrimidin-4-yl)-6-(1H-pyrazol-5-yl)-1H-indazole] | 10.5 nM
15 | COC1CCCN(c2cc(-n3ncc4ccc(OC(C)C)cc43)ccn2)C1 (centres unmarked) [Example 36, 6-isopropoxy-1-(2-(3-methoxypiperidin-1-yl)pyridin-4-yl)-1H-indazole] | 596 nM
16 | Cn1cc(-c2ccc3cnn(-c4ccnc(N5CCC(S(C)(=O)=O)CC5)c4)c3c2)cn1 [Example 16, 6-(1-methyl-1H-pyrazol-4-yl)-1-(2-(4-(methylsulfonyl)piperidin-1-yl)pyridin-4-yl)-1H-indazole] | 128 nM

Row | Compound | IC50
17 | Cn1cc(-c2ccc3cnn(-c4ccnc(N5CC[C@H](F)C5)c4)c3c2)cn1 [Example 13, (S)-1-(2-(3-fluoropyrrolidin-1-yl)pyridin-4-yl)-6-(1-methyl-1H-pyrazol-4-yl)-1H-indazole] | 108 nM
18 | CC(C)Oc1ccc2cnn(-c3ccnc(N4CCOCC4)c3)c2c1 [Example 4, 4-(4-(6-isopropoxy-1H-indazol-1-yl)pyridin-2-yl)morpholine hydrochloride] | 122 nM
19 | COC1(C)CN(c2cc(-n3ncc4ccc(OC(C)C)cc43)ccn2)C1 [Example 41, 6-isopropoxy-1-(2-(3-methoxy-3-methylazetidin-1-yl)pyridin-4-yl)-1H-indazole] | 890 nM
20 | CC(C)Oc1ccc2cnn(-c3ccnc(N4CCN(c5ncccn5)CC4)c3)c2c1 [Example 33, 6-isopropoxy-1-(2-(4-(pyrimidin-2-yl)piperazin-1-yl)pyridin-4-yl)-1H-indazole] | 326 nM
21 | CC(C)Oc1ccc2cnn(-c3ccnc(N4CCC(O)C4)c3)c2c1 (centres unmarked) [Example 34, 1-(4-(6-isopropoxy-1H-indazol-1-yl)pyridin-2-yl)pyrrolidin-3-ol] | 307 nM
22 | CC(C)Oc1ccc2cnn(-c3ccnc(N4CCCC4)c3)c2c1 [Example 37, 6-isopropoxy-1-(2-(pyrrolidin-1-yl)pyridin-4-yl)-1H-indazole] | 229 nM
23 | CC(C)Oc1ccc2cnn(-c3ccnc(N4CCOC(CCO)C4)c3)c2c1 (centres unmarked) [Example 25, 2-(4-(4-(6-isopropoxy-1H-indazol-1-yl)pyridin-2-yl)morpholin-2-yl)ethanol] | 412 nM
24 | c1ccc2c(c1)cnn2-c1ccnc(N2CCOCC2)c1 [Example 2, 4-(4-(1H-indazol-1-yl)pyridin-2-yl)morpholine] | 633 nM
25 | CC(C)Oc1ccc2cnn(-c3ccnc(N4CC[C@@H](F)C4)c3)c2c1 [Example 42, (R)-1-(2-(3-fluoropyrrolidin-1-yl)pyridin-4-yl)-6-isopropoxy-1H-indazole] | 412 nM
26 | c1nc(N2CCOCC2)cc(-n2ncc3ccc(C4CC4)cc32)n1 [Example 71, 6-cyclopropyl-1-(6-morpholin-4-ylpyrimidin-4-yl)-1H-indazole] | 231 nM
27 | CC(C)Oc1ccc2cnn(-c3ccnc(N4CCN(C)CC4)c3)c2c1 [Example 35, 6-isopropoxy-1-(2-(4-methylpiperazin-1-yl)pyridin-4-yl)-1H-indazole] | 181 nM
28 | CCn1cc(-c2ccc3cnn(-c4ccnc(N5CCOCC5)c4)c3c2)cn1 [Example 19, 4-(4-(6-(1-ethyl-1H-pyrazol-4-yl)-1H-indazol-1-yl)pyridin-2-yl)morpholine] | 128 nM
29 | Cn1cc(-c2ccc3cnn(-c4ccnc(N5CC(F)C5)c4)c3c2)cn1 [Example 14, 1-(2-(3-fluoroazetidin-1-yl)pyridin-4-yl)-6-(1-methyl-1H-pyrazol-4-yl)-1H-indazole] | 145 nM
30 | c1nc(N2CCOCC2)cc(-n2ncc3ccc(-c4cn[nH]c4)cc32)n1 [Example 70, 1-(6-morpholin-4-ylpyrimidin-4-yl)-6-(1H-pyrazo-4-yl)-1H-indazole] | 77 nM
31 | Cn1cc(-c2ccc3cnn(-c4ccnc(N5CC(F)(F)C5)c4)c3c2)cn1 [Example 11, 1-(2-(3,3-difluoroazetidin-1-yl)pyridin-4-yl)-6-(1-methyl-1H-pyrazol-4-yl)-1H-indazole] | 224 nM
32 | CC(C)Oc1ccc2cnn(-c3ccnc(N4CCn5ccnc5C4)c3)c2c1 [Example 23, 7-(4-(6-isopropoxy-1H-indazol-1-yl)pyridin-2-yl)-5,6,7,8-tetrahydroimidazo[1,2-a]pyrazine] | 446 nM

Reference: patent publication US10954240B2, “Compounds inhibiting leucine-rich repeat kinase enzyme activity” (Merck Sharp & Dohme Corp., priority 2014, dated 2021)
